Reference: PubChem BioAssay (NCI)
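Briefly, cells in 96-well plates were exposed to five compound concentrations for 48 h, and endpoints were estimated by linear interpolation. At the TGI there is no net growth.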

Assays:
Assay in all cases: DTP human tumour cell line panel, 48 h
[1] = system: COLO 205 colon
[2] = system: NCI-H226 lung
[3] = system: MOLT-4 leukemia
[4] = system: HOP-92 NSCLC
[5] = system: SK-MEL-28 melanoma
[6] = system: OVCAR-3 ovarian
[7] = system: HOP-62 NSCLC
[8] = system: UACC-62 melanoma
[9] = system: HT29 colon
[10] = system: LOX IMVI melanoma
[11] = system: K-562 leukemia
[12] = system: HCT-116 colon
[13] = system: A498 renal

SMILES | TGI [1] [µM] | TGI [2] [µM] | TGI [3] [µM] | TGI [4] [µM] | TGI [5] [µM] | TGI [6] [µM] | TGI [7] [µM] | TGI [8] [µM] | TGI [9] [µM] | TGI [10] [µM] | TGI [11] [µM] | TGI [12] [µM] | TGI [13] [µM]
COc1ccc(OC)c([N+](=O)[O-])c1-c1nc2sccn2c1/C=N/N=C(N)N | > 100 | > 100 | 69.5 | > 100 | 68.3 | > 100 | > 100 | > 100 | > 100 | > 100 | > 100 | > 100 | > 100
CCC[C@H](O)[C@@H](CNc1cc(NC(C)=O)nc(NC(C)=O)n1)N(Cc1ccccc1)Cc1ccccc1 | > 100 | 33.1 | > 100 | > 100 | > 100 | 55.6 | 36.2 | 57 | – | > 100 | > 100 | 54.1 | > 100
CC(C)(C)OC(=O)NC1CC=CCC1NC(=O)OC(C)(C)C (configuration not stated) | > 100 | > 100 | > 100 | > 100 | > 100 | > 100 | > 100 | > 100 | > 100 | > 100 | > 100 | > 100 | > 100
CC1CC(=O)Nc2cc(Cl)ccc2N1C(=O)C1CC1 (configuration not stated) | > 100 | > 100 | > 100 | > 100 | > 100 | > 100 | > 100 | – | > 100 | > 100 | > 100 | > 100 | > 100
O=C1CSC(/C(=C/c2ccccc2)c2nc3ccccc3[nH]2)=N1 | > 100 | 38.4 | > 100 | > 100 | > 100 | – | > 100 | > 100 | > 100 | > 100 | > 100 | > 100 | > 100
Oc1[nH]c2ccccc2c1N=NC(=S)N1CCCCC1 | 11.2 | 5.02 | 2.15 | 6.58 | 12.2 | 1.7 | 3.83 | 4.01 | 10.8 | 3.2 | – | 1.54 | 1.99
CSc1ccccc1P(c1ccccc1SC)c1ccccc1SC | – | > 100 | > 100 | > 100 | > 100 | – | > 100 | > 100 | – | > 100 | > 100 | > 100 | > 100
O=C(CC(=O)C(=O)Nc1ccccc1)CC(c1ccccc1)c1c(O)c2ccccc2oc1=O (configuration not stated) | > 100 | > 100 | > 100 | > 100 | > 100 | > 100 | – | > 100 | > 100 | > 100 | > 100 | > 100 | > 100
CCCCC1Cc2ccccc2-c2n1c1ccccc1[n+]2C (configuration not stated) | – | > 100 | 81.8 | > 100 | 91 | > 100 | > 100 | – | 57.8 | 62.3 | > 100 | > 100 | > 100
